Measured values reported in US9738634B2, “Heterocyclic amide compound and herbicide” (SYNGENTA PARTICIPATIONS AG, priority 2013, dated 2017).

Experiments:
Assay type in all cases: in vivo
black-grass [1] = assay: Test Example 3: weedkilling efficacy through soil treatment; H: black-grass; conditions: treatment dosage 1250 g/ha
How it was run: (§1)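 Crop and weed responses were judged three weeks after a uniform surface spray of the water-diluted emulsion at the given g/ha rate. Seeds sat beneath about 1.5 cm of sterilized diluvial soil, and boxes stood in a greenhouse at 25 to 30° C.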

crabgrass [2] = assay: Test Example 3: weedkilling efficacy through soil treatment; D: crabgrass; conditions: treatment dosage 1250 g/ha
How it was run: as §1

corn [3] = assay: Test Example 4: foliar treatment, effect on crop; c: corn; conditions: treatment dosage 1250 g/ha
How it was run: (§2)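 Seeds are spot-sown into sterilized diluvial soil and covered with about 1.5 cm of soil. After 14 days' greenhouse growth at 25 to 30° C, plants are sprayed on stems and leaves with diluted emulsion at the stated g/ha rate, then scored at 3 weeks.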

directly sown rice [4] = assay: Test Example 4: foliar treatment, effect on crop; b: directly sown rice; conditions: treatment dosage 1250 g/ha
How it was run: as §2

corn [5] = assay: Test Example 3: soil treatment, effect on crop; c: corn; conditions: treatment dosage 1250 g/ha
How it was run: as §1

wheat [6] = assay: Test Example 3: soil treatment, effect on crop; e: wheat; conditions: treatment dosage 1250 g/ha
How it was run: as §1

crabgrass [7] = assay: Test Example 4: weedkilling efficacy by foliar treatment; D: crabgrass; conditions: treatment dosage 1250 g/ha
How it was run: as §2

barnyard grass [8] = assay: Test Example 2: weedkilling efficacy, growth period weed treatment in the submerged state; A: barnyard grass; conditions: treatment dosage 1000 g/ha
How it was run: (§3)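 Barnyard grass, bulrush and oval-leafed pondweed sown in alluvial soil under 4 cm flooding, greenhouse 25 to 30° C. At 1-2 leaf stage, water-diluted emulsion applied to the water surface at stated g/ha dosages; effects scored 3 weeks later.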

wild oat [9] = assay: Test Example 4: weedkilling efficacy by foliar treatment; G: wild oat; conditions: treatment dosage 1250 g/ha
How it was run: as §2

birds-eye speedwell [10] = assay: Test Example 4: weedkilling efficacy by foliar treatment; p: birds-eye speedwell; conditions: treatment dosage 1250 g/ha
How it was run: as §2

green foxtail [11] = assay: Test Example 4: weedkilling efficacy by foliar treatment; E: green foxtail; conditions: treatment dosage 1250 g/ha
How it was run: as §2

beet [12] = assay: Test Example 3: soil treatment, effect on crop; f: beet; conditions: treatment dosage 1250 g/ha
How it was run: as §1

Italian ryegrass [13] = assay: Test Example 4: weedkilling efficacy by foliar treatment; I: Italian ryegrass; conditions: treatment dosage 1250 g/ha
How it was run: as §2

Italian ryegrass [14] = assay: Test Example 3: weedkilling efficacy through soil treatment; I: Italian ryegrass; conditions: treatment dosage 1250 g/ha
How it was run: as §1

soybean [15] = assay: Test Example 3: soil treatment, effect on crop; d: soybean; conditions: treatment dosage 1250 g/ha
How it was run: as §1

redroot pigweed [16] = assay: Test Example 3: weedkilling efficacy through soil treatment; L: redroot pigweed; conditions: treatment dosage 1250 g/ha
How it was run: as §1

soybean [17] = assay: Test Example 4: foliar treatment, effect on crop; d: soybean; conditions: treatment dosage 1250 g/ha
How it was run: as §2

oval-leafed pondweed [18] = assay: Test Example 1: weedkilling efficacy, preemergent weed treatment in the submerged state; C: oval-leafed pondweed; conditions: treatment dosage 1000 g/ha
How it was run: (§4)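 Pots of alluvial soil flooded 4 cm deep, sown with barnyard grass, bulrush and oval-leafed pondweed and transplanted with 2.5-leaf rice. Emulsified compound applied to the water surface on sowing day at stated g/ha; greenhouse 25–30 °C, effects assessed 3 weeks after treatment.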

birds-eye speedwell [19] = assay: Test Example 3: weedkilling efficacy through soil treatment; p: birds-eye speedwell; conditions: treatment dosage 1250 g/ha
How it was run: as §1

catchweed [20] = assay: Test Example 3: weedkilling efficacy through soil treatment; O: catchweed; conditions: treatment dosage 1250 g/ha
How it was run: as §1

wheat [21] = assay: Test Example 4: foliar treatment, effect on crop; e: wheat; conditions: treatment dosage 1250 g/ha
How it was run: as §2

green foxtail [22] = assay: Test Example 3: weedkilling efficacy through soil treatment; E: green foxtail; conditions: treatment dosage 1250 g/ha
How it was run: as §1

Indian mallow [23] = assay: Test Example 3: weedkilling efficacy through soil treatment; K: Indian mallow; conditions: treatment dosage 1250 g/ha
How it was run: as §1

black-grass [24] = assay: Test Example 4: weedkilling efficacy by foliar treatment; H: black-grass; conditions: treatment dosage 1250 g/ha
How it was run: as §2

catchweed [25] = assay: Test Example 4: weedkilling efficacy by foliar treatment; O: catchweed; conditions: treatment dosage 1250 g/ha
How it was run: as §2

fig-leafed goosefoot [26] = assay: Test Example 3: weedkilling efficacy through soil treatment; M: fig-leafed goosefoot; conditions: treatment dosage 1250 g/ha
How it was run: as §1

barnyard grass [27] = assay: Test Example 1: weedkilling efficacy, preemergent weed treatment in the submerged state; A: barnyard grass; conditions: treatment dosage 1000 g/ha
How it was run: as §4

bulrush [28] = assay: Test Example 1: weedkilling efficacy, preemergent weed treatment in the submerged state; B: bulrush; conditions: treatment dosage 1000 g/ha
How it was run: as §4

fig-leafed goosefoot [29] = assay: Test Example 4: weedkilling efficacy by foliar treatment; M: fig-leafed goosefoot; conditions: treatment dosage 1250 g/ha
How it was run: as §2

wild oat [30] = assay: Test Example 3: weedkilling efficacy through soil treatment; G: wild oat; conditions: treatment dosage 1250 g/ha
How it was run: as §1

oval-leafed pondweed [31] = assay: Test Example 2: weedkilling efficacy, growth period weed treatment in the submerged state; C: oval-leafed pondweed; conditions: treatment dosage 1000 g/ha
How it was run: as §3

directly sown rice [32] = assay: Test Example 3: soil treatment, effect on crop; b: directly sown rice; conditions: treatment dosage 1250 g/ha
How it was run: as §1

Indian mallow [33] = assay: Test Example 4: weedkilling efficacy by foliar treatment; K: Indian mallow; conditions: treatment dosage 1250 g/ha
How it was run: as §2

chickweed [34] = assay: Test Example 4: weedkilling efficacy by foliar treatment; N: chickweed; conditions: treatment dosage 1250 g/ha
How it was run: as §2

transplanted rice = assay: Test Example 1: preemergent weed treatment in the submerged state, effect on crop; a: transplanted rice; conditions: treatment dosage 1000 g/ha
How it was run: as §4

beet [35] = assay: Test Example 4: foliar treatment, effect on crop; f: beet; conditions: treatment dosage 1250 g/ha
How it was run: as §2

redroot pigweed [36] = assay: Test Example 4: weedkilling efficacy by foliar treatment; L: redroot pigweed; conditions: treatment dosage 1250 g/ha
How it was run: as §2

chickweed [37] = assay: Test Example 3: weedkilling efficacy through soil treatment; N: chickweed; conditions: treatment dosage 1250 g/ha
How it was run: as §1

bulrush [38] = assay: Test Example 2: weedkilling efficacy, growth period weed treatment in the submerged state; B: bulrush; conditions: treatment dosage 1000 g/ha
How it was run: as §3

CC1=C(c2cccnc2Cl)C(=O)N(C(C)(C)C(=O)Nc2cccc(Cl)n2)CO1 [B-2-20]
H (black-grass) weedkilling efficacy grade (black-grass [1]): 5 (weed kill ratio 90% or more, (practically complete withering)) | D (crabgrass) weedkilling efficacy grade (crabgrass [2]): 3 (weed kill ratio 40% or more, less than 70%) | c (corn) effect on crop grade (corn [3]): 1 (weed kill ratio 5% or more, less than 20%) | b (directly sown rice) effect on crop grade (directly sown rice [4]): 0 (weed kill ratio 5% or less (practically no effect)) | c (corn) effect on crop grade (corn [5]): 0 (weed kill ratio 5% or less (practically no effect)) | e (wheat) effect on crop grade (wheat [6]): 0 (weed kill ratio 5% or less (practically no effect)) | D (crabgrass) weedkilling efficacy grade (crabgrass [7]): 5 (weed kill ratio 90% or more, (practically complete withering)) | A (barnyard grass) weedkilling efficacy grade (barnyard grass [8]): 1 (weed kill ratio 5% or more, less than 20%) | G (wild oat) weedkilling efficacy grade (wild oat [9]): 0 (weed kill ratio 5% or less (practically no effect)) | P (birds-eye speedwell) weedkilling efficacy grade (birds-eye speedwell [10]): 4 (weed kill ratio 70% or more, less than 90%) | E (green foxtail) weedkilling efficacy grade (green foxtail [11]): 5 (weed kill ratio 90% or more, (practically complete withering)) | f (beet) effect on crop grade (beet [12]): 4 (weed kill ratio 70% or more, less than 90%) | I (Italian ryegrass) weedkilling efficacy grade (Italian ryegrass [13]): 4 (weed kill ratio 70% or more, less than 90%) | I (Italian ryegrass) weedkilling efficacy grade (Italian ryegrass [14]): 5 (weed kill ratio 90% or more, (practically complete withering)) | d (soybean) effect on crop grade (soybean [15]): 0 (weed kill ratio 5% or less (practically no effect)) | L (redroot pigweed) weedkilling efficacy grade (redroot pigweed [16]): 4 (weed kill ratio 70% or more, less than 90%) | d (soybean) effect on crop grade (soybean [17]): 3 (weed kill ratio 40% or more, less than 70%) | C (oval-leafed pondweed) weedkilling efficacy grade (oval-leafed pondweed [18]): 4 (weed kill ratio 70% or more, less than 90%) | P (birds-eye speedwell) weedkilling efficacy grade (birds-eye speedwell [19]): 4 (weed kill ratio 70% or more, less than 90%) | O (catchweed) weedkilling efficacy grade (catchweed [20]): 0 (weed kill ratio 5% or less (practically no effect)) | e (wheat) effect on crop grade (wheat [21]): 0 (weed kill ratio 5% or less (practically no effect)) | E (green foxtail) weedkilling efficacy grade (green foxtail [22]): 5 (weed kill ratio 90% or more, (practically complete withering)) | K (Indian mallow) weedkilling efficacy grade (Indian mallow [23]): 2 (weed kill ratio 20% or more, less than 40%) | H (black-grass) weedkilling efficacy grade (black-grass [24]): 4 (weed kill ratio 70% or more, less than 90%) | O (catchweed) weedkilling efficacy grade (catchweed [25]): 0 (weed kill ratio 5% or less (practically no effect)) | M (fig-leafed goosefoot) weedkilling efficacy grade (fig-leafed goosefoot [26]): 4 (weed kill ratio 70% or more, less than 90%) | A (barnyard grass) weedkilling efficacy grade (barnyard grass [27]): 5 (weed kill ratio 90% or more, (practically complete withering)) | B (bulrush) weedkilling efficacy grade (bulrush [28]): 5 (weed kill ratio 90% or more, (practically complete withering)) | M (fig-leafed goosefoot) weedkilling efficacy grade (fig-leafed goosefoot [29]): 3 (weed kill ratio 40% or more, less than 70%) | G (wild oat) weedkilling efficacy grade (wild oat [30]): 0 (weed kill ratio 5% or less (practically no effect)) | C (oval-leafed pondweed) weedkilling efficacy grade (oval-leafed pondweed [31]): 3 (weed kill ratio 40% or more, less than 70%) | b (directly sown rice) effect on crop grade (directly sown rice [32]): 4 (weed kill ratio 70% or more, less than 90%) | K (Indian mallow) weedkilling efficacy grade (Indian mallow [33]): 0 (weed kill ratio 5% or less (practically no effect)) | N (chickweed) weedkilling efficacy grade (chickweed [34]): 2 (weed kill ratio 20% or more, less than 40%) | a (transplanted rice) effect on crop grade (transplanted rice): 0 (weed kill ratio 5% or less (practically no effect)) | f (beet) effect on crop grade (beet [35]): 4 (weed kill ratio 70% or more, less than 90%) | L (redroot pigweed) weedkilling efficacy grade (redroot pigweed [36]): 3 (weed kill ratio 40% or more, less than 70%) | N (chickweed) weedkilling efficacy grade (chickweed [37]): 3 (weed kill ratio 40% or more, less than 70%) | B (bulrush) weedkilling efficacy grade (bulrush [38]): 5 (weed kill ratio 90% or more, (practically complete withering))
